Experiments:
[1] = system: HeLa cells transfected with only a hygromycin-resistant control plasmid (control cells); conditions: as previously described (Hamon et al.; Remaley et al.); cited from earlier work
[2] = system: HeLa cells stably transfected with human ABCA1 cDNA (ABCA1 cells); test: Cholesterol and phospholipid efflux from ABCA1-transfected HeLa cells (incl. time course); type: cell-based
Experimental: (§1) HeLa cells stably transfected with human ABCA1 cDNA (ABCA1 cells) and HeLa cells transfected with only a hygromycin-resistant control plasmid (control cells) are produced and grown in α-modified Eagle's medium (aMEM) plus 10% fetal calf serum, as described by Remaley et al. (Biochem. Biophys. Res. Commun. 280:818-823, 2001). Cholesterol and phospholipid efflux is performed for 18 hours on noncholesterol-loaded cells radiolabeled with either cholesterol or choline (Remaley et al., Arterioscler. Thromb. Vasc. Biol. 17:1813-1821, 1997). Percentage efflux is calculated after subtracting the radioactive counts in the blank media (aMEM plus 1 mg/ml of BSA), and expressed as the percent of total radioactive counts removed from the cells during the efflux period.
(§2) ABCA1 cells are used to assess the ability of apoA-I and synthetic peptides to efflux lipid from cells. […] The peptides of the present invention efflux approximately 2- to 4-fold more cholesterol and phospholipid from ABCA1 cells than from control cells. Both the peptides of the present invention and apoA-I began to show saturation for lipid efflux at approximately the same protein concentration of 10 μg/ml.
Cholesterol efflux from ABCA1 cells to apoA-I is first detectable after 2 hours and increases throughout the 30 hour efflux period. […]

[3] = system: CD11b; test: CD11b expression in stimulated monocytes by flow cytometry; type: cell-based; conditions: human monocytes, 1 μmol/L PMA, 20 μg/ml apoA-1 or peptide
Experimental: Monocyte Isolation Peripheral whole blood (PWB) is drawn from healthy consenting individuals into syringes containing sodium citrate (final concentration—19.2 mM). Resting human monocytes are isolated from PWB by density centrifugation with Lymphoprep (Axis Shield). Mononuclear cells (MNCs) are collected and monocytes are further separated to purity using the Dynal negative isolation kit (Invitrogen). Monocytes are resuspended in phosphate buffered saline (PBS) and cell number is determined counting cell suspension on an automated hematology analyzer (Sysmex, KX-21N, USA). Purification of HDL and apoA-1 Human plasma apoA-1 is isolated as previously described and the purity determined using total mass spectrometry. Flow Cytometry 100 μL of monocytes are stimulated with either 1 μmol/L phorbol-myristate-acetate (PMA) or 1 μg/ml lipopolysaccharide (LPS) (Sigma, Australia) in the presence or absence of apoA-1 (20 μg/ml), or 20 μg/ml of the test peptides of the present invention. SEQ ID NOs: 72, 80, 89, 354, 355 and 372 are also tested individually. The cells are incubated with the FITC conjugated antibody to either the active epitope of CD11b (eBiosciences, USA, Clone CBRM1/5) or total CD11b (Serotec, USA, Clone ICRF44) for 15 min at 37° C. Cells are then fixed with 4% paraformaldehyde. Samples are controlled for by using the appropriately matched isotype matched negative control (FITC-anti-mouse IgG) (Serotec, USA, Clone W3/25). CD11b expression is measured by flow cytometry using FACS Calibur (Becton Dickinson). Analysis is conducted using the Cell Quest Pro software. Statistical Analysis Values are presented as the mean ±SD or percentage of control ±SD. FACS results are analyzed for statistical significance using one-way ANOVA followed by Bonferroni post-hoc test. Significance is accepted at P<0.05. […] The combined effects of increasing cholesterol efflux and decreasing inflammation indicate that the peptides of the present invention effectively mimic the function of Apo AI and will decrease atherosclerosis.

[4] = system: J774 mouse macrophage cells (ABCA1); test: ABCA1 mediated cholesterol efflux; type: cell-based; conditions: samples minus blank, Apo A-I @ 20 μg/ml
From the text: (§3) The methods employed in this study have been described in U.S. Pat. Nos. 7,029,863, 7,060,452, U.S. Patent Application Publication No. 2005/0191715, and in Moya et al., Arteriosclerosis & Thrombosis 1994:14:1056-1065 and Liu et al., J. Biol. Chem., 2003:278(44), 42976-42984. SR-B1 mediated cholesterol efflux is examined in FU5AH rat hepatoma cells and ABCA1 mediated cholesterol efflux is examined in J774 mouse macrophage cells as described in these references.

[5] = system: FU5AH rat hepatoma cells (SR-B1); test: SR-B1 mediated cholesterol efflux; type: cell-based; conditions: samples minus blank; Apo A-I @ 20 μg/ml
From the text: as §3

[6] = system: HeLa cells stably transfected with human ABCA1 cDNA (ABCA1 cells); conditions: as previously described (Hamon et al.; Remaley et al.); cited from earlier work
[7] = system: HeLa cells transfected with only a hygromycin-resistant control plasmid (control cells); test: Cholesterol and phospholipid efflux from control HeLa cells (incl. time course); type: cell-based, human; conditions: 30 hour efflux period
Experimental: as §1, §2
Cholesterol efflux from ABCA1 cells to apoA-I is first detectable after 2 hours and increases throughout the 30 hour efflux period. […] Overall, the kinetics for cholesterol efflux to peptides of the present invention from ABCA1 cells is similar to that of apoA-I, except that cholesterol efflux is first detectable after 30 minutes.

apolipoprotein A-I [Apo A-I, reference compound]
efflux of cholesterol and phospholipid to apoA-I from control cells [1]: do not efflux significant amounts
protein concentration at which lipid efflux begins to show saturation [2]: ~10 µg/mL
time after which cholesterol efflux from ABCA1 cells is first detectable ([2]; 30 hour efflux period): 2 h
PMA induced CD11b expression [3]: significantly reduce
+ABCA1 Cells (efflux) [4]: 20.682 + 0.724
−ABCA1 Cells (efflux) [4]: 1.713 ± 0.409
ABCA1 Mediated Efflux ([4]; equals +ABCA1 minus −ABCA1 cells): 18.97 % Per 4 h
SR-BI Mediated Efflux [5]: 0.26 % Per 4 h
efflux of cholesterol and phospholipid to apoA-I after transfection with ABCA1 [6]: do so after transfection with ABCA1
cholesterol efflux to apoA-I from control cells, time course [7]: no significant increase above background

— patent US20080138284A1, “Novel Peptides That Promote Lipid Efflux” (Lipid Sciences, Inc., priority 2006, published 2008)
